Measured values: ChEMBL document CHEMBL1201862, “PubChem BioAssay data set” (2004)
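96-well plates; 48 h exposure; 5 concentrations. Endpoints by linear interpolation between flanking doses. Not reached: highest tested concentration assigned. GI50 is the concentration that inhibits growth by half.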 Active and inactive are the calls of the source. Cut-off read from the data, not from the text of the source: active = GI50 up to about 1.1 µM and inactive = higher. Positions of bridges follow the written chain, without caps; N, C: chain ends. Non-standard residues stand in square brackets, D forms with d. Residues, ends and D or L forms follow the SMILES beside them. Aib = CC(C)(N)C(=O)O; βAla = NCCC(=O)O

Columns and labels:
Test in all cases: growth of human tumour cells (NCI), 48 h
RPMI-8226 = system: RPMI-8226
NCI-H522 = system: NCI-H522
786-0 = system: 786-0
UACC-62 = system: UACC-62
CCRF-CEM = system: CCRF-CEM
HOP-62 = system: HOP-62
BT-549 = system: BT-549
OVCAR-5 = system: OVCAR-5
OVCAR-8 = system: OVCAR-8
MCF7 = system: MCF7
CAKI-1 = system: CAKI-1
HCT-116 = system: HCT-116
SNB-19 = system: SNB-19
HCT-15 = system: HCT-15
SK-MEL-2 = system: SK-MEL-2
MDA-MB-435 = system: MDA-MB-435
Hs-578T = system: Hs-578T
COLO 205 = system: COLO 205
T47D = system: T47D
DU-145 = system: DU-145
IGROV-1 = system: IGROV-1
A549 = system: A549
EKVX = system: EKVX
HT-29 = system: HT-29
MDA-N = system: MDA-N
RXF 393 = system: RXF 393
SF-539 = system: SF-539
SF-295 = system: SF-295
TK-10 = system: TK-10
Malme-3M = system: Malme-3M
SK-MEL-28 = system: SK-MEL-28
SF-268 = system: SF-268
UO-31 = system: UO-31
MOLT-4 = system: MOLT-4
A498 = system: A498
U-251 = system: U-251
SNB-75 = system: SNB-75
M14 = system: M14
SW-620 = system: SW-620
MDA-MB-231 = system: MDA-MB-231
OVCAR-3 = system: OVCAR-3
PC-3 = system: PC-3
KM12 = system: KM12
SK-MEL-5 = system: SK-MEL-5
NCI-H460 = system: NCI-H460
SK-OV-3 = system: SK-OV-3
K562 = system: K562
NCI-H226 = system: NCI-H226
NCI-H23 = system: NCI-H23
HOP-92 = system: HOP-92
UACC-257 = system: UACC-257
ACHN = system: ACHN
LOX IMVI = system: LOX IMVI
NCI/ADR-RES = system: NCI/ADR-RES
OVCAR-4 = system: OVCAR-4

CC1(C)NC(=O)C(NC(=O)C(N)CC(=O)O)CCCCNC(=O)CCNC1=O (stereo not given) (H-DK[Aib][βAla]; lactam 2-C; configuration not given here)
GI50 (RPMI-8226): > 100 µM (inactive)
GI50 (NCI-H522): > 100 µM (inactive)
GI50 (786-0): > 100 µM (inactive)
GI50 (UACC-62): > 100 µM (inactive)
GI50 (CCRF-CEM): > 100 µM (inactive)
GI50 (HOP-62): > 100 µM (inactive)
GI50 (BT-549): > 100 µM (inactive)
GI50 (OVCAR-5): > 100 µM (inactive)
GI50 (OVCAR-8): > 100 µM (inactive)
GI50 (MCF7): > 100 µM (inactive)
GI50 (CAKI-1): > 100 µM (inactive)
GI50 (HCT-116): > 100 µM (inactive)
GI50 (SNB-19): > 100 µM (inactive)
GI50 (HCT-15): > 100 µM
GI50 (SK-MEL-2): > 100 µM (inactive)
GI50 (MDA-MB-435): > 100 µM (inactive)
GI50 (Hs-578T): > 100 µM (inactive)
GI50 (COLO 205): > 100 µM (inactive)
GI50 (T47D): > 100 µM (inactive)
GI50 (DU-145): > 100 µM (inactive)
GI50 (IGROV-1): > 100 µM (inactive)
GI50 (A549): > 100 µM (inactive)
GI50 (EKVX): > 100 µM (inactive)
GI50 (HT-29): > 100 µM (inactive)
GI50 (MDA-N): > 100 µM (inactive)
GI50 (RXF 393): > 100 µM (inactive)
GI50 (SF-539): > 100 µM (inactive)
GI50 (SF-295): > 100 µM (inactive)
GI50 (TK-10): > 100 µM (inactive)
GI50 (Malme-3M): > 100 µM (inactive)
GI50 (SK-MEL-28): > 100 µM (inactive)
GI50 (SF-268): > 100 µM (inactive)
GI50 (UO-31): > 100 µM (inactive)
GI50 (MOLT-4): > 100 µM (inactive)
GI50 (A498): > 100 µM (inactive)
GI50 (U-251): > 100 µM (inactive)
GI50 (SNB-75): > 100 µM (inactive)
GI50 (M14): > 100 µM (inactive)
GI50 (SW-620): > 100 µM (inactive)
GI50 (MDA-MB-231): > 100 µM (inactive)
GI50 (OVCAR-3): > 100 µM (inactive)
GI50 (PC-3): > 100 µM (inactive)
GI50 (KM12): > 100 µM (inactive)
GI50 (SK-MEL-5): > 100 µM (inactive)
GI50 (NCI-H460): > 100 µM (inactive)
GI50 (SK-OV-3): > 100 µM (inactive)
GI50 (K562): > 100 µM (inactive)
GI50 (NCI-H226): > 100 µM (inactive)
GI50 (NCI-H23): > 100 µM (inactive)
GI50 (HOP-92): > 100 µM (inactive)
GI50 (UACC-257): > 100 µM (inactive)
GI50 (ACHN): > 100 µM (inactive)
GI50 (LOX IMVI): > 100 µM (inactive)
GI50 (NCI/ADR-RES): > 100 µM (inactive)
GI50 (OVCAR-4): > 100 µM (inactive)
